Results reported in ChEMBL document CHEMBL5614438, “CETZOLE Analogs as Potent Ferroptosis Inducers and Their Target Identification Using Covalent/Affinity Probes” (J Med Chem, 2024).
Activity calls are given as the source filed them. No cut-off for these calls is given here.

Key:
[1] = tested on: NCI-H522; experiment: Cytotoxicity against human NCI-H522 cells overexpressing GFP-tagged RV assessed as reduction in cell viability incubated for 3 days by methylene blue staining based spectrophotometric analysis; assay type: functional; settings: NCI-H522, 72 h, time 3 day
[2] = tested on: MDA-MB-231; experiment: Cytotoxicity against human MDA-MB-231 cells assessed as reduction in cell viability incubated for 3 days by methylene blue staining based spectrophotometric analysis; assay type: functional; settings: MDA-MB-231, 72 h, time 3 day
[3] = tested on: NCI-H522; experiment: Cytotoxicity against human NCI-H522 cells overexpressing GFP-tagged SLC7A11 assessed as reduction in cell viability incubated for 3 days by methylene blue staining based spectrophotometric analysis; assay type: functional; settings: NCI-H522, 72 h, time 3 day
[4] = tested on: HT-1080; experiment: Cytotoxicity against human HT-1080 cells assessed as reduction in cell viability incubated for 3 days by methylene blue staining based spectrophotometric analysis; assay type: functional; settings: HT-1080, 72 h, time 3 day
[5] = tested on: U2OS; experiment: Cytotoxicity against human U2OS cells assessed as reduction in cell viability incubated for 3 days by methylene blue staining based spectrophotometric analysis; assay type: functional; settings: 72 h, time 3 day
[6] = tested on: NCI-H522; experiment: Cytotoxicity against human NCI-H522 cells assessed as reduction in cell viability incubated for 3 days by methylene blue staining based spectrophotometric analysis; assay type: functional; settings: NCI-H522, 72 h, time 3 day
[7] = tested on: NCI-H522; experiment: Induction of ferroptosis in human NCI-H522 cells assessed as increase in intracellular lipid peroxidation accumulation at 4.08 uM incubated for 6 hrs by C11 BODIPY 581/591 staining based flow cytometry; assay type: functional, cell-based
[8] = tested on: WI-38; experiment: Cytotoxicity against human WI-38 cells assessed as reduction in cell viability at 1 uM incubated for 3 days by methylene blue staining based spectrophotometric analysis; assay type: toxicity; settings: wi-38, 72 h, time 3 day
[9] = tested on: NCI-H522; experiment: Induction of ferroptosis in human NCI-H522 cells assessed as cell viability incubated for 3 days in presence of liproxstatin-1 by methylene blue staining based spectrophotometric analysis relative to control; assay type: functional; settings: time 3 day
[10] = tested on: MEF; experiment: Cytotoxicity against mouse MEF cells assessed as reduction in cell viability at 1 uM incubated for 3 days by methylene blue staining based spectrophotometric analysis; assay type: toxicity; settings: 72 h, time 3 day
[11] = tested on: NCI-H522; experiment: Cytotoxicity against human NCI-H522 cells assessed as reduction in cell viability at 1 uM incubated for 3 days by methylene blue staining based spectrophotometric analysis; assay type: functional; settings: time 3.0 day
[12] = tested on: HT-1080; experiment: Cytotoxicity against human HT-1080 cells assessed as reduction in cell viability at 1 uM incubated for 3 days by methylene blue staining based spectrophotometric analysis; assay type: functional; settings: time 3.0 day
[13] = tested on: NCI-H522; experiment: Induction of cell death in human NCI-H522 cells at 10 uM incubated for 4 to 5 hrs by live cell imaging analysis relative to control; assay type: functional; settings: time 4-5 hrs
[14] = tested on: NCI-H522; experiment: Induction of cell death in human NCI-H522 cells at 10 uM incubated for 4 to 5 hrs by live cell imaging analysis; assay type: functional, cell-based; settings: time 4-5 hrs
[15] = tested on: WI-38; experiment: Cytotoxicity against human WI-38 cells assessed as reduction in cell viability incubated for 3 days by methylene blue staining based spectrophotometric analysis; assay type: toxicity; settings: wi-38, 72 h, time 3 day
[16] = tested on: NCI-H522; experiment: Induction of cell death in human NCI-H522 cells at 10 uM incubated for 3 to 4 hrs by live cell imaging analysis relative to control; assay type: functional; settings: time 3-4 hrs
[17] = tested on: MEF; experiment: Cytotoxicity against mouse MEF cells assessed as reduction in cell viability incubated for 3 days by methylene blue staining based spectrophotometric analysis; assay type: toxicity; settings: 72 h, time 3 day
[18] = tested on: NCI-H522; experiment: Induction of ferroptosis in human NCI-H522 cells assessed as reduction in cell viability at 3.3 uM incubated for 3 days in presence of liproxstatin-1 by methylene blue staining based spectrophotometric analysis; assay type: functional; settings: time 3.0 day

SMILES	CC50 [1] [µM]	CC50 [2] [µM]	CC50 [3] [µM]	CC50 [4] [µM]	CC50 [5] [µM]	CC50 [6] [µM]	Activity [7]	Activity [8]	Activity [9] [%]	Activity [10]	Activity [11]	Activity [12]	Activity [13] [%]	Activity [14]	CC50 [15] [µM]	Activity [16] [%]	CC50 [17] [µM]	Activity [18]
C#Cc1nc(C2=C(C)C(OC(=O)CCCCCCC)/C(=N/OC(=O)CCCCCCC)C2)cs1 (stereo unspecified)	> 20	19.1	> 20	> 20	> 20	> 20												
C#Cc1nc(C2=C(C)C(=O)/C(=N/OC(C)=O)C2)cs1	> 20	18.5	> 20	> 20	> 20	11												
CCN(CC)c1ccc2cc(C(=O)NC3CCC(c4csc(Br)n4)=C3C)c(=O)oc2c1 (stereo unspecified)		> 20		> 20		> 20												
C#CCCC(=O)Nc1ccc(C(=O)c2ccc(NC(=O)CO/N=C3\CC(c4csc(Br)n4)=C(C)C3O)cc2)cc1 (stereo unspecified)		> 20		> 20		> 20												
C#Cc1nc(C2=C(C)/C(=N/OCc3ccccc3)CC2)cs1	2.54	4.17	2.41	0.81	19.3	1.36	Active	Non-Toxic	85	Non-Toxic	Active	Active	50	Active				
C#Cc1nc(C2=C(C)C(O)/C(=N\OCc3ccccc3)C2)cs1 (stereo unspecified)	3.02	13.4	2.17	0.93	> 20	1.18												
COC(=O)c1ccc([C@H]2c3[nH]c4ccccc4c3C[C@H](C(=O)OC)N2C(=O)CCl)cc1	0.31	0.22	2.84	0.14	2.46	1.1		Toxic		Toxic	Active	Active			0.05	50	0.04	inactive
C#Cc1nc(C2=C(C)C(OC(=O)C(c3ccccc3)c3ccccc3)/C(=N\OC(=O)C(c3ccccc3)c3ccccc3)C2)cs1 (stereo unspecified)	5.02	14.9	9.34	1.85	9.1	3.5												
C#Cc1nc(C2=C(C)C(=O)/C(=N/O)C2)cs1	> 20	8.05	> 20	5.29	> 20	> 20												
C#Cc1nc(C2=C(C)C(O)/C(=N/O)C2)cs1 (stereo unspecified)	5.55	6.57	> 20	5.77	> 20	4.68												
C#Cc1nc(C2=C(C)C(OC(=O)C(C)(C)C)/C(=N\OC(=O)C(C)(C)C)C2)cs1 (stereo unspecified)	0.472	0.44	0.387	0.033	3.39	0.411												
